pIC50: −log10 of the molar value.
How the values were obtained:
Assay type in all cases: cell-based
[1] = test system: human prostate cancer cells LNCAP; experiment: MTS cell growth inhibition, LNCAP; settings: for pIC50 / inhibition at 10 µM: Homo sapiens, LNCaP, 48 h, MTS; for pIC50: growth inhibition; for growth inhibitory activity on LNCAP (in words): summary of Tables 3 and 4; for inhibition at 10 µM: compound concentration 10 μM, read-out: Inhibition rate against LNCAP at 10 μM (%)
Procedure: (§1) 1) Medium: DMEM (Dulbecco's modified eagle medium) or RPMI1640 (containing 10% fetal bovine serum, 100 μg/mL ampicillin, 100 μg/mL streptomycin).
(§2) 2) Reagent: MTS reaction solution (containing 2 mg/mL of MTS (3-(4,5-dimethylthiazol-2-yl)-5-(3-carboxymethoxyphenyl)-2-(4-sulfophenyl)-2H-tetrazolium, inner salt); 100 μg/mL PES ([…])).
(§3) Human promyelocytic leukemia cells HL-60 (2×10^4 cells/well) cultured in vitro were incubated into a 96-well culture plate, the volume of cell-culture medium was 90 μL, and then 10 μL of the compound at each gradient concentration was added (the highest concentration was 10 μM, which was diluted stepwise by ⅓, and 8 concentration points were set in total; the system contained 0.1% DMSO (dimethyl sulfoxide)). The cell plate with uniformly mixed compound was cultured in a cell culture incubator (37° C.; 5% CO2) for 48 h, then 20 μμL of MTS reaction solution was added, uniformly mixed and incubated in the cell culture incubator (37° C.; 5% CO2) for 1-4 hr; OD values at 490 nm were measured by a microplate reader (VARIOSKAN FLASH, Thermo). Three parallels were set in each group of experiments, with 0.1% (a final concentration) DMSO as a negative control, and a medium without cells and compounds as a blank control. The cell growth inhibition rate was calculated by the following formula:
(§4) Cell growth inhibition rate%=1−(ODexperimental group−ODblank group)/(ODnegative group−ODblank group)×100%
(§5) 4) IC50 calculation: The semi-inhibitory concentration of the compound acting on cell was calculated using GradPad Prism 5 software according to the measured cell growth inhibition rate.
(§6) Human lung cancer cells A549, human gastric cancer cells BGC-823, human liver cancer cells HepG-2 and human breast cancer cells MCF-7, human osteosarcoma cells U2OS, human prostate cancer cells LNCAP cultured in vitro were added in a 96-well culture plate at 1,000-10,000 cells/well, incubated until adherence, and then the compound was added. As to other procedures, please refer to the method (1) above.

[2] = test system: human gastric cancer cells BGC-823; experiment: MTS cell growth inhibition, BGC-823; settings: 48 h; for inhibition at 10 µM: compound concentration 10 μM, read-out: Inhibition rate against BGC-823 at 10 μM (%); for pIC50: growth inhibition
Procedure: as §1, §2, §3, §4, §5, §6

[3] = test system: Human lung cancer cells A549; experiment: MTS cell growth inhibition, A549; settings: compound concentration 10 μM, 48 h, MTS, read-out: Inhibition rate against A549 at 10 μM (%)
Procedure: as §1, §2, §3, §4, §5, §6

[4] = test system: Human promyelocytic leukemia cells HL-60; experiment: MTS cell growth inhibition, HL-60; settings: for inhibition at 10 µM / pIC50: Homo sapiens, HL-60, 48 h, MTS; for inhibition at 10 µM: compound concentration 10 μM, read-out: Inhibition rate against HL-60 at 10 μM (%); for pIC50: growth inhibition; for growth inhibitory activity on HL-60 (in words): summary of Tables 3 and 4
Procedure: as §1, §2, §3, §4, §5

[5] = test system: human liver cancer cells HepG-2; experiment: MTS cell growth inhibition, HepG-2; settings: 48 h; for inhibition at 10 µM: HepG2, compound concentration 10 μM, read-out: Inhibition rate against HepG-2 at 10 μM (%); for pIC50: HepG2, growth inhibition
Procedure: as §1, §2, §3, §4, §5, §6

[6] = test system: human breast cancer cells MCF-7; experiment: MTS cell growth inhibition, MCF-7; settings: MCF7, compound concentration 10 μM, 48 h, read-out: Inhibition rate against MCF-7 at 10 μM (%)
Procedure: as §1, §2, §3, §4, §5, §6

[7] = test system: human osteosarcoma cells U2OS; experiment: MTS cell growth inhibition, U2OS; settings: for inhibition at 10 µM / pIC50: Homo sapiens, U2OS, 48 h, MTS; for inhibition at 10 µM: compound concentration 10 μM, read-out: Inhibition rate against U2OS at 10 μM (%); for pIC50: growth inhibition; for growth inhibitory activity on U2OS (in words): summary of Tables 3 and 4
Procedure: as §1, §2, §3, §4, §5, §6

Row | pIC50 [1] | pIC50 [4] | pIC50 [7] | pIC50 [2] | pIC50 [5] | Structure (SMILES) | growth inhibitory activity on LNCAP (in words) [1] | inhibition at 10 µM [2] | inhibition at 10 µM [3] | inhibition at 10 µM [4] | growth inhibitory activity on HL-60 (in words) [4] | inhibition at 10 µM [5] | inhibition at 10 µM [6] | inhibition at 10 µM [7] | growth inhibitory activity on U2OS (in words) [7] | inhibition at 10 µM [1]
1 | 7.49 | 10.92 | 8.22 |  |  | O=C(NCc1ccccc1-c1ccoc1)c1cc2scnc2[nH]1 [Compound I-27] | relatively good growth inhibitory activity | 55.1% | 67.9% | 68.8% | relatively good growth inhibitory activity | 43.2% | 1.7% | 44.9% | relatively good growth inhibitory activity | 
2 | < 5.00 | 5.89 | 5.57 | 5.95 | 5.71 | CN(C)c1ccc(NC(=O)c2cc3scnc3[nH]2)cc1 [Compound I-13] |  | 54.3% | 3.4% | 69.7% |  | 54.7% | < 0% | 53.2% |  | 48.6%
3 | 5.28 | 6.19 | 5.82 | 6.07 | 5.83 | O=C(Nc1ccc(C(F)(F)F)cc1)c1cc2scnc2[nH]1 [Compound I-11] |  | 58.8% | 7.6% | 71.2% |  | 62.9% | 7.4% | 56.2% |  | 56.1%
4 | 6.79 | 5.49 | 5.21 |  |  | O=C(NCc1ccccc1-c1ccco1)c1cc2scnc2[nH]1 [Compound I-26] |  | 23.4% | < 0% | 64.8% |  | 29.7% | 3.1% | 44.5% |  | 44.9%
5 | 5.32 | 5.15 | 5.11 |  |  | Cc1cn(-c2cc(NC(=O)c3cc4scnc4[nH]3)cc(C(F)(F)F)c2)cn1 [Compound I-35] |  | 44.4% | 59.5% | 80.4% |  | 50.5% | < 0% | 42.2% |  | 61.9%
6 | 5.15 | 5.73 | 5.26 |  |  | CS(=O)(=O)c1ccc(OCc2cccc(NC(=O)c3cc4scnc4[nH]3)c2)cc1 [Compound I-32] |  | 9.2% | < 0% | 70.3% |  | < 0% | < 0% | 45.2% |  | 41.5%
7 | 6.07 | 5.64 | 5.56 |  |  | O=C(NCc1ccccc1-c1ccsc1)c1cc2scnc2[nH]1 [Compound I-24] |  | 51.2% | 20.1% | 64.3% |  | 38.2% | 31.5% | 37.6% |  | 48.7%
8 | 5.59 | 6.17 | 5.44 |  |  | O=C(NCc1ccccc1-c1ccncc1)c1cc2scnc2[nH]1 [Compound I-22] |  | 64.6% | 54.8% | 65.2% |  | 48.9% | 15.1% | 50% |  | 64.3%
9 | 5.59 | 6.31 | 5.05 |  |  | CSc1ccc(OCc2cccc(NC(=O)c3cc4scnc4[nH]3)c2)cc1 [Compound I-31] |  | 20.4% | < 0% | 71.8% |  | 18.5% | 13.9% | 54.9% |  | 59.3%
10 |  |  |  |  |  | O=C(Nc1ccc([N+](=O)[O-])cc1)c1cc2scnc2[nH]1 [Compound I-16] |  | 63.3% | 32.4% | 44.6% |  | 38.6% | 17.6% | 40.2% |  | 58%
11 | 6.89 | 8.30 | 6.03 |  |  | O=C(NCc1ccccc1-c1cc2ccccc2o1)c1cc2scnc2[nH]1 [Compound I-28] | relatively good growth inhibitory activity | 60.3% | 50.3% | 74.8% | relatively good growth inhibitory activity | 44.4% | 21% | 48.7% | relatively good growth inhibitory activity | 71%
12 | 5.22 | 5.75 | 5.20 |  |  | COC(=O)c1ccc(NC(=O)c2cc3scnc3[nH]2)cc1 [Compound I-8] |  | 72.2% | 56.8% | 69.4% |  | 58.1% | 21.2% | 50.9% |  | 
13 | < 5.00 | 5.57 | < 5.00 |  |  | CCN(CC)c1ccc(NC(=O)c2cc3scnc3[nH]2)cc1 [Compound I-15] |  | 71.7% | 69.4% | 63.2% |  | 57.8% | 23.8% | 53.5% |  | 
14 | 6.50 | 6.66 | 6.03 | 6.24 | 5.70 | O=C(Nc1ccc(OC(F)(F)F)cc1)c1cc2scnc2[nH]1 [Compound I-6] |  | 64.5% | 6.3% | 69.1% |  | 66.5% | 3.4% | 56.2% |  | 55.8%
15 | 5.20 | 6.23 | 5.82 | 6.02 | 6.65 | COc1ccc(NC(=O)c2cc3scnc3[nH]2)cc1 [Compound I-12] |  | 47.4% | 9.3% | 68.9% |  | 58.3% | 5.9% | 57.7% |  | 54.6%
16 | 5.80 | 6.32 | 5.53 |  |  | O=C(NCc1ccccc1-c1cccnc1)c1cc2scnc2[nH]1 [Compound I-23] |  | 71.1% | 53.4% | 70.5% |  | 60.4% | 27% | 56% |  | 64.4%

Source: patent US20200325156A1, “HETEROARYL AMIDE COMPOUNDS, PREPARATION METHOD THEREFOR, PHARMACEUTICAL COMPOSITIONS THEREOF, AND APPLICATIONS THEREOF” (Rui Jin Hospital Affiliated to Shanghai Jiao Tong …, priority 2017, published 2020)
